Laboratory results reported in article PMC9977398, “Next-generation membrane-active glycopeptide antibiotics that also inhibit bacterial cell division” (Chemical Science, 2023).

How the values were obtained:
persister cells of MRSA = experiment: Bactericidal activity against persister cells; assay type: cell-based, S. aureus
Procedure: Persister cells are a subpopulation of bacterial cultures that are refractory to antibiotic treatment.[28] […] This activity was more rapid than that observed against stationary phase cells. […]
from 10 μg/mL. The bacteria with compounds and untreated control were incubated for 18 h at 37 ̊C under shaking and OD600 was measured.
Microscopy of ΔamiAC MG1655 E. coli
ΔamiAC MG1655 was cultured overnight in LB media at 37 ̊C. Cells were then inoculated in LB media at 1:100 dilution ratio and made to grow till O.D600 0.1. The cells were then treated with 4 μg/mL concentration of vancomycin and VanQAmC10 or left untreated for 2 h. 6 μl of sample was immobilized on 1% agarose pad and microscopy was performed as described above. The experiments were performed three times independently and the images are representative of results from three independent experiments. […]
MRSA ATCC 33591 was grown to mid-log phase at 37 °C. […] The viable bacteria were then counted after 48 h incubation at 37 °C. […]
Antagonization of antibacterial activity of AAV-qC10 was determined by addition of 500 μM N,N՛-diacetyl–L-Lys–D-Ala–D-Ala or 100 μg/mL of lipoteichoic acid to serial dilutions of the test compound. The MIC was then determined against MRSA by measuring the OD600 18-24 […]
Vancomycin was chosen as control antibiotic for MRSA. The initial MIC values of VanQAmC10, vancomycin were determined against the respective bacteria. […]

B. subtilis = experiment: Membrane permeabilization assay, propidium iodide uptake; assay type: cell-based; conditions: exponentially growing B. subtilis, 10 μM, PI uptake
Procedure: The kinetics of permeabilization of membranes of MRSA and B. subtilis by the compounds was measured by the uptake of propidium iodide (PI). […] When the membrane integrity is compromised, it enters the cell and fluoresces upon binding to the DNA. Both VanQbiph (4) and VanQAmC10 (8) permeabilized the membrane in a concentration-dependent manner (Fig. S2 ^†). […] They caused gradual permeabilization against the stationary phase cells of MRSA as well (Fig. 2F). The extent of permeabilization was higher for VanQAmC10 (8) than VanQbiph (4) against both the log-phase and stationary-phase bacteria similar to that observed during depolarisation.
50 μL of serially diluted compound was added into 96 well microtiter plates. Freshly drawn, heparanized human blood was centrifuged down to obtain the erythrocytes and re-suspended to 5 vol % in PBS (pH 7.4). […] 100 μL of the supernatant from each well were transferred into fresh microtiter plates, and A540 was measured.
% haemolysis = (A - A0)/(Atotal -A0) × 100, where A is the absorbance of the test well, A 0 the absorbance of the negative controls (without compound), and A total the absorbance of 100 % hemolysis wells (with Triton X -100), all at 540 nm. […]
2 h post incubation with dye, the absorbance was measured at 570 nm using 600 nm as […]
The bactericidal activity of the compounds was evaluated with the time kill kinetics assay. […]

[1] = system: VRE 51559 (vancomycin-resistant E. faecium, VanA phenotype, ATCC 51559); design: method as in PMID 32195571; conditions: previously reported; cited from earlier work

In the case of `CCCCCCCCCCNC(=O)C[N+](C)(C)CCCNC(=O)C1NC(=O)C2NC(=O)C(NC(=O)C3NC(=O)C(CC(N)=O)NC(=O)C(NC(=O)C(CC(C)C)NC)C(O)c4ccc(c(Cl)c4)Oc4cc3cc(c4OC3OC(CO)C(O)C(O)C3OC3CC(C)(N)C(O)C(C)O3)Oc3ccc(cc3Cl)C2O)c2ccc(O)c(c2)-c2c(O)cc(O)cc21` (stereo not drawn) [VanQAmC10 (8)], the “activity against persister cells” value (persister cells of MRSA) is given as “concentration-dependent bactericidal activity”, the “time to membrane permeabilization” value (B. subtilis) is given as no more than 4 min and the “Minimum inhibitory concentration, VRE 51559” value [1] is given as 4 µM.
